Tests used:
[1] = biological target: Ba/F3_KRAS^G12D cells (Homo sapiens, UniProt P01116, G12D, cells depend on it); experiment: Ba/F3 KRAS^G12D cell proliferation assay (cell-titer Glo); format: cell-based; settings: cell growth inhibition, treated with the compounds for 3 days, read-out: BaF3_KRAS^G12D IC50
Method: Cells were seeded at a density of 5×10^3 per well into 96-well plate and incubated overnight. Serial diluted compounds were added to each well. Cells were treated with the compounds for 3 days, after which cell-titer Glo reagent (Promega #G7572) was used to assess cell proliferation. The luminescence signal was then collected on Tecan Spark plate reader. […] Cell growth inhibition of IC50 is calculated with the equation of Y=Bottom+(Top−Bottom)/(1+10^((LogIC50−X)*HillSlope))

[2] = biological target: recombinant human KRAS^G12D protein (Homo sapiens, UniProt P01116, G12D); experiment: Temperature-dependent Fluorescence (TdF) KRAS^G12D protein binding assay; settings: 6 μM KRAS^G12D Protein, 10 μM compound, Sypro Orange; Kd calculated from fluorescent shift
Sequence of recombinant human KRAS^G12D protein (P01116 1-188 isoform P01116-2 G12D): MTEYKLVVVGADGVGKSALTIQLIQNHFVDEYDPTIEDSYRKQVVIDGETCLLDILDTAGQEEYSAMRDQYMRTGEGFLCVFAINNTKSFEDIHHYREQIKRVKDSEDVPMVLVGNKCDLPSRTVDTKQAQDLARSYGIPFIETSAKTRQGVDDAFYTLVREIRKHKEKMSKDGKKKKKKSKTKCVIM
Method: The TdF assay was conducted in the 96-well-based real-time fluorescence plate reader (ABI 7500 or Roche LightCycler 480). Fluorescent dye Sypro Orange (Sigma) was used to monitor the protein folding-unfolding transition. Protein-compound binding was gauged by the shift in the unfolding transition temperature (ΔTm) acquired with and without compound. […] The sample plate was heated from 30° C. to 95° C. with a thermal ramping rate of […], taking a fluorescence reading every 0.4° C. using a CY3 channel matching the excitation and emission wavelengths of Sypro Orange (λ ex 470 nm; λ em 570 nm). Binding affinity (Kd value) was calculated based on the degree of fluorescent shift of the protein with and without compound.

Sequence of Ba/F3_KRAS^G12D cells (P01116 whole entry G12D): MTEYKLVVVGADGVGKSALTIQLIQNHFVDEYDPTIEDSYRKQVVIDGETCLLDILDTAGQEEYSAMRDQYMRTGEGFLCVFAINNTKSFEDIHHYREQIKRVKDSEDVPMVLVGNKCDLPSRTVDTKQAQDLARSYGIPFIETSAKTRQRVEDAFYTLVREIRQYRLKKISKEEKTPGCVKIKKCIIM

SMILES	GI50 [1]	Kd [2]
Cc1cc2c(N3CC4CCC(C3)N4)nc(OCC34CCCN3CCC4)nc2c(=O)n1-c1cccc2ccccc12 [Compound 107]	0.5 to 5 µM	> 5 µM
Nc1cccc(F)c1-c1ncc2c(N3CCNCC3)nc(OCC34CCCN3CCC4)cc2n1 [Compound 22]	> 5 µM	> 5 µM
CN1CCC[C@H]1Cn1c(=O)nc(N2CCNCC2)c2cnc(-c3cccc4cccc(Cl)c34)c(F)c21 [Compound 35]	> 5 µM	> 5 µM
Oc1cc(-c2ncc3c(N4CC5CCC(C4)N5)cc(OCC45CCCN4CCC5)nc3c2F)c2c(Cl)cccc2c1 [Compound 71]	> 5 µM	0.5 to 5 µM
NC(=O)N1CCN(c2nc(OC[C@@]34CCCN3C[C@H](F)C4)nc3c(F)c(-c4cc(O)cc5cccc(Cl)c45)ncc23)CC1 [Compound 77]	> 5 µM	> 5 µM
Fc1ccccc1-c1nc2cc(OCC34CCCN3CCC4)nc(N3CC4CCC(C3)N4)c2cc1F [Compound 16]	0.5 to 5 µM	> 5 µM
CN1CCC[C@H]1Cn1c(=O)nc(N2CC3CCC(C2)N3)c2cc(F)c(-c3cc(O)cc4ccccc34)nc21 [Compound 39]	> 5 µM	> 5 µM
Oc1cc(-c2cc3nc(OC[C@@]45CCCN4C[C@H](F)C5)nc(N4CC5CCC(C4)N5)c3nn2)c2ccccc2c1 [Compound 84]	0.5 to 5 µM	0.5 to 5 µM
c1ccc2c(-c3ncc4c(N5CCNCC5)nc(OCC56CCCN5CCC6)cc4n3)cccc2c1 [Compound 18]	0.5 to 5 µM	> 5 µM
Nc1cccc(F)c1-c1nc2nc(OCC34CCCN3CCC4)nc(N3CC4CCC(C3)N4)c2cc1Cl [Compound 11]	> 5 µM	> 5 µM
CN(C)CCCOc1nc(N2CC3CCC(C2)N3)c2cc(Cl)c(-c3cccc4ccccc34)nc2n1 [Compound 4]	> 5 µM	> 5 µM
CCN1CCN(c2nc(OCC34CCCN3CCC4)nc3c(F)c(-c4cc(O)cc5cccc(Cl)c45)ncc23)CC1 [Compound 42]	0.5 to 5 µM	> 5 µM
Oc1cc(-c2nc3cc(OCC45CCCN4CCC5)nc(N4CC5CCC(C4)N5)c3cc2Cl)c2c(Cl)cccc2c1 [Compound 34]	> 5 µM	> 5 µM
Oc1cc(-c2ncc3c(N4CC5CCC(C4)N5)cc(OC[C@@]45CCCN4C[C@H](F)C5)nc3c2F)c2c(Cl)cccc2c1 [Compound 78]	0.5 to 5 µM	≤ 0.5 µM
CC1(O)CN2CCC[C@@]2(COc2nc(N3CC4CCC(C3)N4)c3cnc(-c4cc(O)cc5cccc(Cl)c45)c(F)c3n2)C1 (stereo partly shown) [Compound 96]	> 5 µM	≤ 0.5 µM
CN(C)CCOc1nc(N2CC3CCC(C2)N3)c2cc(F)c(-c3ccccc3F)nc2c1-c1cccnc1C1CC1 [Compound 27]	0.5 to 5 µM	> 5 µM

SMILES	GI50 [1]	Kd [2]
Oc1cc(-c2nc(OC[C@@]34CCCN3C[C@H](F)C4)c3ccc(N4CC5CCC(C4)N5)nc3c2Br)c2c(Cl)cccc2c1 [Compound 101]	0.5 to 5 µM	> 5 µM
CN1CCC[C@H]1Cn1c(=O)nc(N2CCNCC2)c2cc(F)c(-c3cccc4cccc(Cl)c34)nc21 [Compound 38]	> 5 µM	> 5 µM
Oc1cc(-c2ncc3c(N4CC5CCC(C4)N5)nc(OC[C@@]45CCCN4C[C@H](F)C5)c(Cl)c3n2)c2c(Cl)c(F)ccc2c1 [Compound 75]	> 5 µM	≤ 0.5 µM
Clc1cccc2cccc(-c3nc(OCC45CCCN4CCC5)c4ccc(N5CCNCC5)nc4c3Br)c12 [Compound 83]	0.5 to 5 µM	> 5 µM
CN1CCC[C@H]1Cn1c(=O)nc(N2CCN[C@@H](CC#N)C2)c2cnc(-c3cc(O)cc4cccc(Cl)c34)c(F)c21 [Compound 64]	> 5 µM	> 5 µM
Oc1cc(-c2ncc3c(N4CC5CCC(C4)N5)nc(OCC45CCCN4CCC5)nc3c2F)c2ccccc2c1 [Compound 12]	0.5 to 5 µM	≤ 0.5 µM
CCc1cccc2cc(O)cc(-c3ncc4c(N5CC6CCC(C5)N6)nc(OC[C@@]56CCCN5C[C@H](F)C6)c(Cl)c4n3)c12 [Compound 61]	0.5 to 5 µM	≤ 0.5 µM
Fc1c(-c2cccc3cccc(Cl)c23)ncc2c(N3CCNCC3)cc(OCC34CCCN3CCC4)nc12 [Compound 67]	0.5 to 5 µM	> 5 µM
Oc1cc(-c2ncc3c(N4CC5CCC(C4)N5)nc(OC[C@@]45CCCN4C[C@H](F)C5)c(Cl)c3n2)c2ccccc2c1 [Compound 63]	0.5 to 5 µM	> 5 µM
O=c1cc2c(N3CC4CCC(C3)N4)nc(OCC34CCCN3CCC4)nc2cn1-c1cc(O)cc2cccc(Cl)c12 [Compound 111]	> 5 µM	> 5 µM
Cc1nc(-c2cc(O)cc3cccc(C#N)c23)c(F)c2nc(OC[C@@]34CCCN3C[C@H](F)C4)nc(N3CC4CCC(C3)N4)c12 [Compound 115]	> 5 µM	≤ 0.5 µM
Cc1cc(N)nc(-c2nc(C)c3c(N4CC5CCC(C4)N5)nc(OC[C@@]45CCCN4C[C@H](F)C5)nc3c2F)c1C1CC1 [Compound 102]	> 5 µM	> 5 µM
CCc1cccc2cc(O)cc(-c3cc4c(cn3)c(N3CC5CCC(C3)N5)nc(=O)n4C[C@@H]3CCCN3C)c12 [Compound 88]	> 5 µM	> 5 µM
N#Cc1c(-c2cccc3cccc(Cl)c23)nc(OCC23CCCN2CCC3)c2ccc(N3CCNCC3)nc12 [Compound 98]	0.5 to 5 µM	> 5 µM
CCc1cccc2cc(O)cc(-c3nc(C)c4c(N5CC6CCC(C5)N6)nc(OC[C@@]56CCCN5C[C@H](F)C6)nc4c3C3CC3)c12 [Compound 122]	0.5 to 5 µM	> 5 µM
Oc1cc(-c2ncc3c(N4CC5CCC(C4)N5)nc(OCC45CCCN4CCC5)cc3n2)c2c(Cl)cccc2c1Cl [Compound 59]	> 5 µM	> 5 µM

Other lines, results leading:

GI50 [1]	Kd [2]	SMILES
< 0.5 µM	≤ 0.5 µM	Cc1nc(-c2cc(O)cc3cccc(C(F)(F)F)c23)c(F)c2nc(OC[C@@]34CCCN3C[C@H](F)C4)nc(N3CC4CCC(C3)N4)c12 [Compound 106]
0.5 to 5 µM	> 5 µM	Cc1nc(-c2cc(C(F)F)cc3cccc(Cl)c23)c(F)c2nc(OC[C@@]34CCCN3C[C@H](F)C4)nc(N3CC4CCC(C3)N4)c12 [Compound 116]
< 0.5 µM	> 5 µM	CN1CCC[C@@H]1COc1nc(-c2cccc3cccc(Cl)c23)c(F)c2nc(N3CCNCC3)ccc12 [Compound 53]
0.5 to 5 µM	> 5 µM	c1ccc2c(-c3ncc4c(N5CC6CCC(C5)N6)nc(OCC56CCCN5CCC6)cc4n3)cccc2c1 [Compound 21]
< 0.5 µM	≤ 0.5 µM	C#Cc1c(F)ccc2cc(O)cc(-c3nc(C)c4c(N5CC6CCC(C5)N6)nc(OC[C@@]56CCCN5C[C@H](F)C6)nc4c3Cl)c12 [Compound 134]
< 0.5 µM	≤ 0.5 µM	CCc1cccc2cc(O)cc(-c3nc(Cl)c4c(N5CC6CCC(C5)N6)nc(OC[C@@]56CCCN5C[C@H](F)C6)nc4c3F)c12 [Compound 113]
< 0.5 µM	≤ 0.5 µM	C#Cc1c(F)ccc2cc(N)cc(-c3nc(OC)c4c(N5CC6CCC(C5)N6)nc(OC[C@@]56CCCN5C[C@H](F)C6)nc4c3F)c12 [Compound 163]
< 0.5 µM	≤ 0.5 µM	C#Cc1c(F)ccc2cc(O)cc(-c3nc(OC(C)C)c4c(N5CC6CCC(C5)N6)nc(OC[C@@]56CCCN5C[C@H](F)C6)nc4c3F)c12 [Compound 171]
< 0.5 µM	≤ 0.5 µM	Oc1cc(-c2ncc3c(N4CC5CCC(C4)N5)nc(OC[C@@]45CCCN4C[C@H](F)C5)nc3c2F)c2c(Cl)cccc2c1 [Compound 36]
< 0.5 µM	> 5 µM	Clc1cccc2cccc(-c3cc4nc(N5CCNCC5)ccc4c(OCC45CCCN4CCC5)n3)c12 [Compound 82]
< 0.5 µM	≤ 0.5 µM	CCc1cccc2cc(O)cc(-c3nc(C)c4c(N5CC6CCC(C5)N6)nc(OC[C@@]56CCCN5C[C@H](F)C6)nc4c3C)c12 [Compound 117]
< 0.5 µM	≤ 0.5 µM	Oc1cc(-c2ncc3c(N4C5CCC4CNC5)nc(OC[C@@]45CCCN4C[C@H](F)C5)nc3c2F)c2c(Cl)cccc2c1 [Compound 70]
< 0.5 µM	≤ 0.5 µM	Cc1nc(-c2cc(O)cc3cccc(Cl)c23)c(F)c2nc(OC[C@@]34CCCN3C[C@H](F)C4)nc(N3CC4CCC(C3)N4)c12 [Compound 89]
< 0.5 µM	≤ 0.5 µM	Oc1cc(-c2ncc3c(N4CC5CCC(C4)N5)nc(OCC45CCCN4CCC5)nc3c2F)c2c(Cl)cccc2c1 [Compound 32]
< 0.5 µM	≤ 0.5 µM	Oc1cc(-c2ncc3c(N4CC5CCC(C4)N5)nc(OC[C@@]45CCCN4C[C@H](F)C5)nc3c2F)c2c(Cl)cccc2c1 [Compound 112]
< 0.5 µM	≤ 0.5 µM	CCc1c(F)ccc2cc(O)cc(-c3nc(C(F)F)c4c(N5CC6CCC(C5)N6)nc(OC[C@@]56CCCN5C[C@H](F)C6)nc4c3F)c12 [Compound 166]
< 0.5 µM	≤ 0.5 µM	Cc1nc(-c2cc(O)cc3ccccc23)c(F)c2nc(OC[C@@]34CCCN3C[C@H](F)C4)nc(N3CC4CCC(C3)N4)c12 [Compound 81]
< 0.5 µM	≤ 0.5 µM	C#Cc1cccc2cc(O)cc(-c3nc(C)c4c(N5CC6CCC(C5)N6)nc(OC[C@@]56CCCN5C[C@H](F)C6)nc4c3F)c12 [Compound 103]
